No end group written: not given here.
Key:
MC3 receptor [1] = target: T1, MC3 receptor (Homo sapiens, UniProt P41968); assay: cAMP generation in L-cells transfected with the MC3 receptor; assay type: cell-based; design: these were utilized to obtain full-length genomic clones by screening a genomic library; expressed in transfected cells; CMVneo vector
Excerpt: (§1) Receptor Expression. […] The sequences were subsequently checked by nucleotide sequencing to insure that no sequence errors were induced by PCR. L-cells (a mouse fibroblast-like cell line) were transfected using a calcium phosphate co-precipitation method as described in Chen, C. A. et al. Bio/Techniques 6:632-638 (1988). Permanently transfected L-cells were selected by resistance to the neomysin analogue G418, and receptor mRNA expression was checked by Northern blot analysis. […] COS-1 cells which were transiently transfected with the CMVneo/MC4R gene construct by lipofection as described in Feigner, P. L. et al., PNAS (USA) 84:7413-7417 using the Lipofectin Reagent (Life Technologies Inc.) were split into 12-well plates after 24 hr and assayed 36 hr post-transfection.
(§2) cAMP Assays. For these assays a cAMP assay kit (TRK 432, Amersham Corp.) was employed. […] The cells were maintained in Dulbecco's modified Eagle's medium (GIBCO) containing 4.5 g/100 ml glucose, 10% fetal calf serum, 100 units/ml penicillin and streptomycin, 1 mM sodium pyruvate, and 1 mg/ml Geneticin. […] An aliquot (0.5 ml) of Earle's balanced salt solution was placed into each well along with 5 μl of 2×10^-2 M isobutylmethylxanthine. Varying concentrations of agonist were added, and the cells were incubated to 30 min at 37° C. Ice-cold 30% trichloracetic acid (500 μl/well) was added to stop the reaction and precipitate cellular protein. The cells were scraped and transferred to 16×150-mm glass tubes, then placed on ice for 30 min. The precipitate was then centrifuged for 10 min at 1,900×g, and the supernatant was ether extracted, lyophilized, and resuspended in 50 mM Tris, 2 mM EDTA (pH 7.5). cAMP content was then measured by a competitive binding assay according to the assay instructions.

MC4 receptor [2] = target: T2, MC4 receptor (Homo sapiens, UniProt P32245); assay: intracellular cAMP content in Hepa cells transfected with the MC4 receptor; assay type: cell-based
T2 construct: expressed in transfected cells; host or cells: COS-1 (transient, lipofection); Hepa rat hepatoma; CMVneo vector

MC3 receptor [3] = target: T1, MC3 receptor; assay: intracellular cAMP content in Hepa cells transfected with the MC3 receptor; assay type: cell-based; design: these were utilized to obtain full-length genomic clones by screening a genomic library; expressed in transfected cells; CMVneo vector
Procedure: Receptor Expression. […] The sequences were subsequently checked by nucleotide sequencing to insure that no sequence errors were induced by PCR. […] A rat hepatoma cell line (Hepa) which lacks endogenous melanocortin receptors was also transfected with the CMVneo/MC3R and CMVneo/MC4R constructs.
cAMP Assays. For these assays a cAMP assay kit (TRK 432, Amersham Corp.) was employed. Cells transfected with the receptors were grown to confluence in 12-well (2.4×1.7 cm) tissue culture plates. The cells were maintained in Dulbecco's modified Eagle's medium (GIBCO) containing 4.5 g/100 ml glucose, 10% fetal calf serum, 100 units/ml penicillin and streptomycin, 1 mM sodium pyruvate, and 1 mg/ml Geneticin. For assays, this medium was removed and cells were washed twice with Earle's balanced salt solution containing 10 mM Hepes (pH 7.4), 1 mM glutamine, 26.5 mM sodium bicarbonate, and 100 mg/ml bovine serum albumin. An aliquot (0.5 ml) of Earle's balanced salt solution was placed into each well along with 5 μl of 2×10^-2 M isobutylmethylxanthine. Varying concentrations of agonist were added, and the cells were incubated to 30 min at 37° C. Ice-cold 30% trichloracetic acid (500 μl/well) was added to stop the reaction and precipitate cellular protein. The cells were scraped and transferred to 16×150-mm glass tubes, then placed on ice for 30 min. The precipitate was then centrifuged for 10 min at 1,900×g, and the supernatant was ether extracted, lyophilized, and resuspended in 50 mM Tris, 2 mM EDTA (pH 7.5). cAMP content was then measured by a competitive binding assay according to the assay instructions.
Receptor Gene Expression. The coding region of the MC3 receptor gene was subcloned into the eukaryotic expression vector CMVneo using a polymerase chain reaction (PCR) strategy as previously described. […] The insert was subsequently checked by dideoxynucleotide sequencing to insure that no errors were induced by the PCR. […]

MC1 receptor [4] = target: T3, MC1 receptor (Homo sapiens, UniProt Q01726, R163Q/S90T); assay: cAMP generation in L-cells transfected with the MC1 receptor; assay type: cell-based
T3 construct: expressed in transfected cells
T3 sequence (Q01726 1-317 S90T/R163Q): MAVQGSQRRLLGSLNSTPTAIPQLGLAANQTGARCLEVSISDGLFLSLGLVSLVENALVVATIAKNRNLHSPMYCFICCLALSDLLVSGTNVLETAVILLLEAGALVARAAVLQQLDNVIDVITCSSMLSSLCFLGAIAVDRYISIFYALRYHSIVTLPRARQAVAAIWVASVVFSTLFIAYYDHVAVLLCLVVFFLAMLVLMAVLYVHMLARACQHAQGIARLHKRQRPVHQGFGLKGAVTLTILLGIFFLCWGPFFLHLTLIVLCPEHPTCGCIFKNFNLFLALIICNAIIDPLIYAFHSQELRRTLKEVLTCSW
Excerpt: as §1, §2

MC4 receptor [5] = target: T2, MC4 receptor; assay: cAMP generation in L-cells transfected with the MC4 receptor gene; assay type: cell-based
Excerpt: as §1, §2

mMC5 receptor = target: T4, mMC5 receptor (Mus musculus, UniProt P41149); assay: cAMP generation in L-cells transfected with the mMC5 receptor; assay type: cell-based
T4 construct: expressed in transfected cells
Excerpt: as §1, §2

[6] = test system: endogenous vasopressin receptors; assay: intracellular Ca++ concentration in Hepa cells, endogenous vasopressin receptors; assay type: cell-based, rat
Procedure: Measurement of Intracellular Ca++ Concentration ([Ca++]i). For these experiments, Hepa cells were detached by incubation in Ca^++ -free EBSS with 2.0 mM EDTA, loaded with 1 μM fura-2/AM (Molecular Probes, Eugene, Oreg.) for 20 min at 37° C. in EBSS containing 0.1% BSA and 25 mM HEPES, washed by centrifugation at 50 X g, and resuspended and maintained in EBSS buffer at room temperature until the time of experimentation. [Ca^++ ]i measurements of cells suspended in a quartz cuvette were obtained using a dual-wavelength modular fluorometer (Spex-Fluorolog 2, Spex Industries, Edison, N.J.) according to previously described methods. DelValle, J. et al., Am. J. Physiol. 262:G420-426 (1992).

MC1 receptor [7] = target: T5, MC1 receptor (Homo sapiens, UniProt Q01726); conditions: Chhajlani et al. 1992; cited from earlier work
T5 construct: host or cells: Cos-7 cells transfected with α-MSH receptor cDNA

MC1 receptor [8] = conditions: Mountjoy et al. 1992; cited from earlier work
MC3 receptor [9] = target: T1, MC3 receptor; assay: [3H] inositol phosphate (IP) production in Hepa cells transfected with the MC3 receptor
Excerpt: Receptor Gene Expression. The coding region of the MC3 receptor gene was subcloned into the eukaryotic expression vector CMVneo using a polymerase chain reaction (PCR) strategy as previously described. […] The insert was subsequently checked by dideoxynucleotide sequencing to insure that no errors were induced by the PCR. A rat hepatoma cell line (Hepa) which lacks endogenous melanocortin receptors was transfected with the CMVneo/MC3 receptor construct using the calcium phosphate co-precipitation method. […] Cells were selected for resistance to the neomycin analogue Geneticin (Life Sciences) and clones were subsequently chosen for high levels of receptor mRNA expression by Northern blot analysis.
Inositol Phosphate (IP) Assays. Measurement of inositol phospholipid turnover in Hepa cells was performed according to a modification of previously published methods as follows. […] Cells grown to semi-confluence in multiwell plates were prelabeled with [2-^3 H] myo-inositol in DMEM for 24 hr, incubated in EBSS for 30 min, then incubated for another 15 min in EBSS with 10 mM LiCl. The final incubation was in media with experimental ligand added for up to three min after which ice cold 100% methanol was added and the cells were scraped and extracted with 2 ml chloroform, 10 μl HCl (13 N), and 200 μl of 100 mM EDTA in a 50 ml polypropylene tube. The mixture was then vortexed and centrifuged at 1,900 X g. The supernatant was removed and its pH was adjusted to 7.0 by adding 1 N NaOH. Waters Accel plus QMA SEP-PAK anion exchange cartridges (Waters Chromatography, Millipore Corporation, Milford, Mass.) were used to separate inositol phosphates under differing concentrations of formatelformic acid. The cartridges were pretreated by washing with 10 ml of a solution of 1 M ammonium formate in 0.1 M formic acid followed by 20 ml of distilled water. The samples were applied with a flow rate of approximately 10 ml/min using a 10 ml syringe. IPs were then eluted using 10 mM increments of ammonium formate in a stepwise fashion. Inositol monophosphate was eluted with 10 mM formic acid/100 mM ammonium formate/5 mM disodium tetraborate, inositol bisphosphate was eluted with 20 mM formic acid/200 mM ammonium formate/5 mM disodium tetraborate, and IP3 was eluted with 30 mM formic acid/300 mM ammonium formate/5 mM disodium tetraborate. […] Eluted radioactivity from the pooled fractions (total inositol phosphates) were measured by liquid-scintillation spectrometry (Beckman model LS7800 instrument).

MC4 receptor [10] = target: T2, MC4 receptor; assay: cAMP generation in COS-1 cells transiently transfected with the MC4 receptor gene; assay type: cell-based
Excerpt: as §1
cAMP Assays. For these assays a cAMP assay kit (TRK 432, Amersham Corp.) was employed. […] The cells were maintained in Dulbecco's modified Eagle's medium (GIBCO) containing 4.5 g/100 ml glucose, 10% fetal calf serum, 100 units/ml penicillin and streptomycin, 1 mM sodium pyruvate, and 1 mg/ml Geneticin. […] The precipitate was then centrifuged for 10 min at 1,900×g, and the supernatant was ether extracted, lyophilized, and resuspended in 50 mM Tris, 2 mM EDTA (pH 7.5). cAMP content was then measured by a competitive binding assay according to the assay instructions.

[11] = test system: chimeric receptor cH2R/MC3R-3i; assay: [3H] IP production in Hepa cells transfected with chimeric cH2R/hMC3R-3i; assay type: cell-based; conditions: pretreatment, chimeric cH2R/MC3R-3i
Excerpt: Chimeric Receptor. […] The chimeric receptor (cH2R/MC3R-3i) was constructed by cassette mutation at the junction of the fifth and sixth transmembrane domains of cH2R. Six PCR primers were used to generate three DNA fragments which were subsequently ligated together. The three PCR-generated fragments consisted of 1) the 5' coding region of the cH2R receptor beginning just prior to the ATG codon and ending with the 3' end of the fifth transmembrane domain; 2) the portion of the MC3 receptor gene encoding its third intracytoplasmic loop; and 3) the 3' coding region of the cH2R beginning with that segment encoding the 5' end of the sixth transmembrane domain and ending slightly past the termination codon. The DNA fragments were cut with appropriate restriction enzymes at pre-engineered restriction sites designed so that the three fragments could be assembled together in only the correct alignment. Restriction sites were also designed to facilitate subcloning the chimeric receptor DNA into CMVneo and the sequencing vector M13. The nucleotide sequence of the CMVneo cH2R/MC3R-3i construct was confirmed prior to expression in Hepa cells.
Inositol Phosphate (IP) Assays.

[12] = read-out: ED50, cAMP generation

T4 sequence (P41149 whole entry): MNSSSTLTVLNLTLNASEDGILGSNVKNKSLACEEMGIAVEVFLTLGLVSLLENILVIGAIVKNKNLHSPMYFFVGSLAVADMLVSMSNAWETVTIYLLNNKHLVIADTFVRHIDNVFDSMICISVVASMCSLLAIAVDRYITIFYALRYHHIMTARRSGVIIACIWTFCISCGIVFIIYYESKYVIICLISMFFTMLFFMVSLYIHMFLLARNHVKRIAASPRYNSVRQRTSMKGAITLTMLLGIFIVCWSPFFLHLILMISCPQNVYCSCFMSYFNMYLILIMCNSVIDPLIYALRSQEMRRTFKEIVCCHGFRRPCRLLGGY
T1 sequence (P41968 whole entry): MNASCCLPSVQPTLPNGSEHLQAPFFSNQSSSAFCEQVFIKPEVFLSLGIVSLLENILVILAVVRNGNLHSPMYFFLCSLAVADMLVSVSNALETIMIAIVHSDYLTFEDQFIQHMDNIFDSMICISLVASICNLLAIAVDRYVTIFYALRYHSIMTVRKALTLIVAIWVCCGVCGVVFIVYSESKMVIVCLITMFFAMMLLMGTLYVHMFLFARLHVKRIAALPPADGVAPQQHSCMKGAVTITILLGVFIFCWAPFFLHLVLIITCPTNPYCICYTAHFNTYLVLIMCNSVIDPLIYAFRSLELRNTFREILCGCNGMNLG
T2 sequence (P32245 whole entry): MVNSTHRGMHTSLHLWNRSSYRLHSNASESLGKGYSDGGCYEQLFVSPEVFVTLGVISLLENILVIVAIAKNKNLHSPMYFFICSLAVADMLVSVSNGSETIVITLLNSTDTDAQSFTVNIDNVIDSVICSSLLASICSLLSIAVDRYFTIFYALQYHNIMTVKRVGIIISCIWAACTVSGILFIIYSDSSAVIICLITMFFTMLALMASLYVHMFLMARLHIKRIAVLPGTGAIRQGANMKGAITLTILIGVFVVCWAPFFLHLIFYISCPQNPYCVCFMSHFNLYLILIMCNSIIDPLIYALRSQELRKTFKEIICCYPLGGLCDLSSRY
T5 sequence (Q01726 whole entry): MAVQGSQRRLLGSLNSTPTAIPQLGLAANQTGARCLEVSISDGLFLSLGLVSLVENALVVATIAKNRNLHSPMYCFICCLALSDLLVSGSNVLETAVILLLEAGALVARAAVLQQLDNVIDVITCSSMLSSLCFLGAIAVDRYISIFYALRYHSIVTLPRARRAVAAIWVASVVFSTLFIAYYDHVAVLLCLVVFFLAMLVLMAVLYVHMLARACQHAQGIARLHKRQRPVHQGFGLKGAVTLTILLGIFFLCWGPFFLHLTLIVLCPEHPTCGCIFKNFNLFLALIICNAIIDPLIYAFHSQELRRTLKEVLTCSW

## [des-acetyl] α-MSH
MC3 receptor [1]
  cAMP response (in words): identical to those observed for ACTH and α-MSH
MC4 receptor [2]
  cAMP response (in words): no difference was observed
MC3 receptor [3]
  cAMP response (in words): no difference was observed
MC1 receptor [4]
  cAMP response (in words): identical to those observed for ACTH and α-MSH

## β-endorphin
MC3 receptor [1]
  cAMP response (in words): neither the MC1 receptor nor the MC3 receptor responded
MC4 receptor [5]
  cAMP response (in words): did not respond
mMC5 receptor
  cAMP response (in words): Neither were the other products of pro-opiomelanocortin processing, β-endorphin, met-enkephlin, or porcine β-lipotropin active
MC1 receptor [4]
  cAMP response (in words): neither the MC1 receptor nor the MC3 receptor responded

## Thr^1, Pro^11 y-MSH
MC4 receptor [2]
  cAMP response (in words): diminished both the potency and efficacy

## NC(=O)CC[C@@H]1NC(=O)[C@H](Cc2ccccc2)NC(=O)[C@H](Cc2ccc(O)cc2)NC(=O)[C@@H](N)CSSC[C@@H](C(=O)N2CCC[C@H]2C(=O)N[C@@H](CCCN=C(N)N)C(=O)NCC(N)=O)NC(=O)[C@H](CC(N)=O)NC1=O [vasopressin]
[6]
  effect on [Ca++]i (in words): increase in [Ca^++ ]i upon stimulation of their endogenous vasopressin receptors

## SYSMEHFRWGKPVGKKRRPVKVYPNGAEDESAEAFPLEF [ACTH, ACTH(1-39)] [listing 1 of 2 here]
MC3 receptor [1]
  cAMP response (in words): equal potency and efficacy
MC4 receptor [5]
  cAMP response (in words): equal potency and efficacy
MC1 receptor [7]
  affinity in displacing 125I-labeled [Nle4,D-Phe7]α-MSH (in words): equal affinities
MC1 receptor [8]
  cAMP production via the MC1 receptor (in words): less potent and less efficacious than α-MSH
MC3 receptor [9]; HepA, read-out: maximal stimulation of [3H]-IP production, % of basal unstimulated value
  Emax: 155%
MC3 receptor [9]; Hepa cells, MC3 receptor
  inositol phospholipid turnover dose-response (in words): At low doses (below 10^-11 M) there was a clear stimulatory effect, however, at higher doses, there was a dose dependent inhibitory effect
MC3 receptor [3]
  cAMP production relative to control unstimulated levels at maximal doses: exceeded 15 times the control
  cAMP response (in words): stimulated cAMP production
MC4 receptor [10]
  cAMP response (in words): marked increase in intracellular cAMP content
MC1 receptor [4]
  cAMP response (in words): equal potency and efficacy

## CSCC[C@H](NC(=O)[C@@H](NC(=O)[C@@H](N)Cc1ccc(O)cc1)C(C)C)C(=O)NCC(=O)N[C@@H](Cc1c[nH]cn1)C(=O)N[C@@H](Cc1ccccc1)C(=O)N[C@@H](CCCNC(=N)N)C(=O)N[C@@H](Cc1c[nH]c2ccccc12)C(=O)N[C@@H](CC(=O)O)C(=O)N[C@@H](CCCNC(=N)N)C(=O)N1CCC[C@H]1C(=O)NCC(=O)O [Pro^11 y-MSH]
MC4 receptor [2]; α-MSH as reference for maximum response
  efficacy, intracellular cAMP: 75%
MC4 receptor [2]; α-MSH dose response curve as reference for maximum response
  EC50: 100 nM

## Rat ACTH: rat ACTH, which differs from human ACTH in two amino acids (SYSMEHFRWGKPVGKKRRPVKVYPNVAENESAEAFPLEF; Corticotropin; UniProt P01194 124-162, looked up)
mMC5 receptor
  cAMP response (in words): produced the same results

## CSCC[C@H](N)C(=O)N[C@@H](CCC(=O)O)C(=O)N[C@@H](Cc1c[nH]cn1)C(=O)N[C@@H](Cc1ccccc1)C(=O)N[C@@H](CCCNC(=N)N)C(=O)N[C@@H](Cc1c[nH]c2ccccc12)C(=O)NCC(=O)O [ACTH(4-10)]
MC4 receptor [2]; read-out: efficacy, % of the maximal response of ACTH (1-13)
  Emax: 30%

## [Met]enkephalin
MC3 receptor [1]
  cAMP response (in words): neither the MC1 receptor nor the MC3 receptor responded
MC4 receptor [5]
  cAMP response (in words): did not respond
mMC5 receptor
  cAMP response (in words): Neither were the other products of pro-opiomelanocortin processing, β-endorphin, met-enkephlin, or porcine β-lipotropin active
MC1 receptor [4]
  cAMP response (in words): neither the MC1 receptor nor the MC3 receptor responded

## CCCC(=O)Nc1ncnc2c1ncn2[C@@H]1O[C@@H]2COP(=O)(O)O[C@H]2[C@H]1OC(=O)CCC [dbcAMP, dibutryl cAMP]
MC3 receptor [9]
  effect on α-MSH stimulated [3H]-IP production (in words): dose dependently inhibited the level of [^3 H]-IP turnover in response to α-MSH

## SYSMEHFRWGKPVGKKRRPVKVYPNGAEDESAEAFPLEF [ACTH, ACTH(1-39)] [listing 2 of 2 here]
MC3 receptor [1]; [12]
  EC50: ~1 nM
MC4 receptor [5]; read-out: half-maximal effect (EC50), intracellular cAMP
  EC50: 1 nM
MC1 receptor [4]; [12]
  EC50: ~1 nM

## O=S(=O)(NCCNCC=Cc1ccc(Br)cc1)c1cccc2cnccc12 [H-89, N-[2-(p-bromocinnamyl-amino)ethyl]-5-isoquinolinesulfonamide]
[11]
  effect on inhibitory phase of histamine [3H]-IP dose response curve (in words): abolished by pretreatment with H-89
MC3 receptor [9]
  effect on α-MSH stimulated [3H]-IP production (in words): restoration of the higher levels of [^3 H]-IP products observed with 10^-11 M α-MSH
MC3 receptor [9]; pretreatment, 10^-8 M α-MSH, Hepa cells, MC3 receptor
  concentration of maximum effect on α-MSH stimulated [3H]-IP production: 1 µM

B1: β-lipotropin (peptide, UniProt P01192 177-267, looked up, listed as Lipotropin beta)
Lipotropin beta: ELAGAPPEPARDPEAPAEGAAARAELEYGLVAEAEAAEKKDEGPYKMEHFRWGSPPKDKRYGGFMTSEKSQTPLVTLFKNAIVKNAHKKGQ
notes: product of pro-opiomelanocortin processing
MC4 receptor [5]
  cAMP response (in words): small increase in cAMP
mMC5 receptor
  cAMP response (in words): Neither were the other products of pro-opiomelanocortin processing, β-endorphin, met-enkephlin, or porcine β-lipotropin active

Source: patent publication US6117975A, “Melanocortin receptor polypeptides MC-3, MC-4, and MC-5” (The Regents of the University of Michigan, priority 1996, dated 2000)
